Two compounds from ChEMBL document CHEMBL4196029, “New MD2 inhibitors derived from curcumin with improved anti-inflammatory activity” (Eur J Med Chem, 2018) can be followed below.

Experiment [1] deals with Rattus norvegicus. Put plainly: Anti-inflammatory activity in Sprague-Dawley rat model of LPS-induced acute lung injury assessed as reduction in TNFalpha mRNA level in lungs at 20 mg/kg, po administered daily for 1 week followed by LPS addition at 30 mins post last dose measured after 6 hrs by qRT-PCR method. In kind it is functional, organism-based. In general terms: Quantitative PCR measures a nucleic acid by following its amplification.

Experiment [2] has as its system Rattus norvegicus. Put plainly: Anti-inflammatory activity in Sprague-Dawley rat model of LPS-induced acute lung injury assessed as reduction in MCP1 mRNA level in lungs at 20 mg/kg, po administered daily for 1 week followed by LPS addition at 30 mins post last dose measured after 6 hrs by qRT-PCR method. In kind it is functional, organism-based.
Experiment [3] has as its target Mitogen-activated protein kinase 1 (Homo sapiens) (UniProt P28482). Put plainly: Inhibition of recombinant human full length N-terminal GST-tagged ERK2 (1 to 360 end residues) expressed in Escherichia coli at 0.1 uM after 1 hr by caliper mobility shift assay relative to control.
For experiment [4], the target named is T1, Inhibitor of nuclear factor kappa-B kinase subunit beta (Homo sapiens) (UniProt O14920).
T1 sequence (whole entry): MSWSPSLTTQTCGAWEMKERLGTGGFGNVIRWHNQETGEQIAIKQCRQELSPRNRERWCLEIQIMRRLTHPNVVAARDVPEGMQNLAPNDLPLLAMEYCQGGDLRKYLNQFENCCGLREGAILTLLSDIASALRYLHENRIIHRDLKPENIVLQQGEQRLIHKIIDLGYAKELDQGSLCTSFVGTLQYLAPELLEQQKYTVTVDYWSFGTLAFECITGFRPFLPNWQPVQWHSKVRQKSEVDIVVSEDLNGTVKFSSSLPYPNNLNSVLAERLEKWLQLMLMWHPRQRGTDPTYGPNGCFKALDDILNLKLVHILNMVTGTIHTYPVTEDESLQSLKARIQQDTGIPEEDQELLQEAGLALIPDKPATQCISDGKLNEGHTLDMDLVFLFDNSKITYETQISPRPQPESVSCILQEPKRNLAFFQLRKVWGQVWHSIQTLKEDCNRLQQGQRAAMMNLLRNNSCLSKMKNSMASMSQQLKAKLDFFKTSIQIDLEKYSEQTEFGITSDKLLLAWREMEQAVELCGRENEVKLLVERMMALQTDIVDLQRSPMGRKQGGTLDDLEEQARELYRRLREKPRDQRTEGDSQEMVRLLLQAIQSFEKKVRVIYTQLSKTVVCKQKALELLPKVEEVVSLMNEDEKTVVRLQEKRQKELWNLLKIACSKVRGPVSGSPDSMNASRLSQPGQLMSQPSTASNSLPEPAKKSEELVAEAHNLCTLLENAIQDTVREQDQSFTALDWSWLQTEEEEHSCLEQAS
The experiment is described as follows: Inhibition of recombinant human N-terminal His-tagged IKKbeta (1 to 662 residues) expressed in baculovirus expression system at 1 uM after 1 hr by caliper mobility shift assay relative to control.

The test system of experiment [5] is Rattus norvegicus. Put plainly: Anti-inflammatory activity in Sprague-Dawley rat model of LPS-induced acute lung injury assessed as reduction in macrophage mobilization to lungs by measuring tissue content of CD68 at 20 mg/kg, po administered daily for 1 week followed by LPS addition at 30 mins post last dose measured after 6 hrs by DAB staining based light microscopic method. In kind it is functional, organism-based.

Experiment [6] deals with Rattus norvegicus. Put plainly: Anti-inflammatory activity in Sprague-Dawley rat model of LPS-induced acute lung injury assessed as reduction in leukocytic extravasation in lungs by measuring number of cells in BALF at 20 mg/kg, po administered daily for 1 week followed by LPS addition at 30 mins post last dose measured after 6 hrs by Wright-Giemsa staining based light microscopic assay. In kind it is functional, organism-based.

The subject of experiment [7] is Peritoneal macrophage. The experiment is described as follows: Anti-inflammatory activity in C57BL/6 mouse primary peritoneal macrophages assessed as inhibition of LPS-induced IL-6 secretion at 1 uM preincubated for 30 mins followed by LPS addition measured after 24 hrs by ELISA relative to control. In kind it is functional. The following applies: C57BL/6, Peritoneal macrophage.

Experiment [8] concerns Peritoneal macrophage. The experiment is described as follows: Anti-inflammatory activity in C57BL/6 mouse primary peritoneal macrophages assessed as inhibition of LPS-induced TNFalpha secretion at 10 uM preincubated for 30 mins followed by LPS addition measured after 24 hrs by ELISA relative to control. In kind it is functional. The following applies: C57BL/6, Peritoneal macrophage.

The subject of experiment [9] is Peritoneal macrophage. Put plainly: Inhibition of LPS-induced IL-6 mRNA expression in C57BL/6 mouse primary peritoneal macrophages at 10 uM preincubated for 30 mins followed by LPS addition measured after 24 hrs by qRT-PCR analysis. In kind it is functional, cell-based.
Experiment [10] deals with Rattus norvegicus. The experiment is described as follows: Anti-inflammatory activity in Sprague-Dawley rat model of LPS-induced acute lung injury assessed as reduction in pulmonary edema at 20 mg/kg, po administered daily for 1 week followed by LPS addition at 30 mins post last dose measured after 6 hrs. In kind it is functional, organism-based.
For experiment [11], the target named is Mitogen-activated protein kinase 1 (Homo sapiens) (UniProt P28482). The experiment is described as follows: Inhibition of recombinant human full length N-terminal GST-tagged ERK2 (1 to 360 end residues) expressed in Escherichia coli at 1 uM after 1 hr by caliper mobility shift assay relative to control.
In experiment [12] the test system is Peritoneal macrophage. The experiment is described as follows: Anti-inflammatory activity in C57BL/6 mouse primary peritoneal macrophages assessed as inhibition of LPS-induced IL-6 secretion at 1 to 10 uM preincubated for 30 mins followed by LPS addition measured after 24 hrs by ELISA. In kind it is functional, cell-based. For orientation: An ELISA detects its analyte on a solid surface through an enzyme-linked reagent.

In experiment [13] the test system is Peritoneal macrophage. Put plainly: Inhibition of LPS-induced IL-1beta mRNA expression in C57BL/6 mouse primary peritoneal macrophages at 10 uM preincubated for 30 mins followed by LPS addition measured after 24 hrs by qRT-PCR analysis. In kind it is functional, cell-based.
In experiment [14] the test system is RAW264.7. The experiment is described as follows: Inhibition of MD2 in […] cells harboring NF-kB-luc assessed as inhibition of LPS-induced TLR4 activation-mediated NF-kB transcriptional activity at 2.5 uM preincubated with cells followed by LPS addition measured after 6 hrs by luciferase reporter gene assay. In kind it is cell-based. In general terms: A reporter such as luciferase makes a cellular process visible.

Experiment [15] relates to Rattus norvegicus. The experiment is described as follows: Anti-inflammatory activity in Sprague-Dawley rat model of LPS-induced acute lung injury assessed as reduction in morphological changes in lungs at 20 mg/kg, po administered daily for 1 week followed by LPS addition at 30 mins post last dose measured after 6 hrs by hematoxylin and eosin staining based light microscopic assay. In kind it is functional, organism-based.

In experiment [16] the target is Interleukin-1 receptor-associated kinase 1 (Homo sapiens) (UniProt P51617). The experiment is described as follows: Inhibition of recombinant human N-terminal GST-tagged IRAK1 (194 to 712 residues) expressed in baculovirus expression system at 1 uM after 1 hr by caliper mobility shift assay relative to control.
Experiment [17] concerns the target T1, Inhibitor of nuclear factor kappa-B kinase subunit beta (Homo sapiens). The experiment is described as follows: Inhibition of recombinant human N-terminal His-tagged IKKbeta (1 to 662 residues) expressed in baculovirus expression system at 0.1 uM after 1 hr by caliper mobility shift assay relative to control.
For experiment [18] the target is unchanged. Put plainly: Inhibition of recombinant human N-terminal His-tagged IKKbeta (1 to 662 residues) expressed in baculovirus expression system at 10 uM after 1 hr by caliper mobility shift assay relative to control.
Experiment [19] deals with Peritoneal macrophage. The experiment is described as follows: Anti-inflammatory activity in C57BL/6 mouse primary peritoneal macrophages assessed as inhibition of LPS-induced TNFalpha secretion at 5 uM preincubated for 30 mins followed by LPS addition measured after 24 hrs by ELISA relative to control. In kind it is functional. Particulars: C57BL/6, Peritoneal macrophage.

Experiment [20] relates to RAW264.7. The experiment is described as follows: Binding affinity to MD2 in […] cells assessed as inhibition of LPS-induced TLR4-MD2 complex dimerization at 10 uM by co-immunoprecipitation assay. In kind it is cell-based.

Molecules are shown by their SMILES. Calls of active or inactive are those of the source. The rule behind the calls is not given here.

Mitogen-activated protein kinase 1 (Homo sapiens), sequence (P28482 whole entry): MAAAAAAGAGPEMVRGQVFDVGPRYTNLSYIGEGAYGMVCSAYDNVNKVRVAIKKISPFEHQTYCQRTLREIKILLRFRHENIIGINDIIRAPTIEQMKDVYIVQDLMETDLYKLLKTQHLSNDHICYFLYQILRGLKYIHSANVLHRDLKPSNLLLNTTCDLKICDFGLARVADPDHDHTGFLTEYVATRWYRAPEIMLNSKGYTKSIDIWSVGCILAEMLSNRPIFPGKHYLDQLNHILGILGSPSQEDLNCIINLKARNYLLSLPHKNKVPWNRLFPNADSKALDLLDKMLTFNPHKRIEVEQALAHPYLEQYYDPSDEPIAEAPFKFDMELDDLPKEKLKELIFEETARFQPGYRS
Interleukin-1 receptor-associated kinase 1 (Homo sapiens), sequence (P51617 whole entry, looked up, the tested form may be a part): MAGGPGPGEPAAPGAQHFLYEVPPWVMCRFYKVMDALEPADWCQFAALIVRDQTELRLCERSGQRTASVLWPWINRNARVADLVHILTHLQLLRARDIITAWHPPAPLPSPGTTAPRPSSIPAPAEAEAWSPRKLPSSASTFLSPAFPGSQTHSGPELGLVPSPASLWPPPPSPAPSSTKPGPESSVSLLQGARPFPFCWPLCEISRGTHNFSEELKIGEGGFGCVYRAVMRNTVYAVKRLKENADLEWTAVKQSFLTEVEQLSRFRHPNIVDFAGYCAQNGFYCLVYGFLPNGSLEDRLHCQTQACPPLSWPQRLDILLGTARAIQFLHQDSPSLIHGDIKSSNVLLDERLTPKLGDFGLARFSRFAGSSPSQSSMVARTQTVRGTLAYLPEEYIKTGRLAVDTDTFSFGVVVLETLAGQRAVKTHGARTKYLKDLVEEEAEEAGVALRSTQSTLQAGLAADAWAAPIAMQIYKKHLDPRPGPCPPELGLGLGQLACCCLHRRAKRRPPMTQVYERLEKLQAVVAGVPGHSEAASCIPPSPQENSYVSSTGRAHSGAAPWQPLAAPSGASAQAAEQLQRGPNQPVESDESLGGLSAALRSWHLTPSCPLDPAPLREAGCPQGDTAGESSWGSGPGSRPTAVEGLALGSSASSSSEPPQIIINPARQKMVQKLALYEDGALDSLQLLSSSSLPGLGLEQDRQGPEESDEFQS

Broadly, the inhibition is the share of the control response that was lost under treatment. In the case of `COc1cc(/C=C2\COC/C(=C\c3cc(OC)c(OC)c(OC)c3)C2=O)cc(OC)c1OC`, the outcome in experiment [1], in experiment [2], in experiment [5], in [6], in experiment [10] and in experiment [15] was Active. The inhibition worked out at 21.3% in experiment [3]; 13.3% in experiment [4]; 10.4% in [11]; 8.7% in experiment [16]; 15.7% in experiment [17]; 7.9% in experiment [18]. For the same compound, in [7], the inhibition at 1 µM is more than 90%. For the same compound, in experiment [8], the inhibition at 10 µM is more than 90%. In addition, the inhibition entry in experiment [9], in experiment [12], in [13], in [14] and in [20] was “Active” throughout. The inhibition at 5 µM in experiment [19] is more than 50%.
In the case of `COc1cc(/C=C2\CN(C)C/C(=C\c3cc(OC)c(OC)c(OC)c3)C2=O)cc(OC)c1OC`, the outcome in [1], in experiment [2], in experiment [5], in experiment [6], in experiment [10] and in experiment [15] was Active. Besides, the inhibition in experiment [3] was 11.7%; in experiment [4], 6.3%; in experiment [11] it was 13.3%; in experiment [16], 8.7%; in experiment [17], 21.1%; in [18] it was 12.8%. Besides, in [7], the inhibition at 1 µM is more than 90%. Moreover, the inhibition at 10 µM in [8] was more than 90%. Moreover, the inhibition entry in [9], in experiment [12], in [13], in experiment [14] and in experiment [20] was “Active” throughout. Besides, in experiment [19], the inhibition at 5 µM is more than 50%.
